These are literature values, as cited in Sander's compilation of Henry's law constants (doi:10.1021/es00169a013).

This data set is described as follows: Henry solubility constant Hcp at 298.15 K (mol/(m3 Pa)). The following applies: reference: Dunnivant et al. (1988); cited value.

Take `Clc1cc(Cl)c(-c2cc(Cl)c(Cl)cc2Cl)cc1Cl` [2,2',4,4',5,5'-hexachlorobiphenyl]: the “Henry solubility constant Hcp” value is 0.08.
`Clc1cc(Cl)c(-c2c(Cl)cc(Cl)cc2Cl)c(Cl)c1` [2,2',4,4',6,6'-hexachlorobiphenyl]: the “Henry solubility constant Hcp” value is 0.086.
Take `Clc1cccc(Cl)c1-c1c(Cl)cccc1Cl` [2,2',6,6'-tetrachlorobiphenyl]: the “Henry solubility constant Hcp” value was 0.067.
For `Clc1ccc(-c2ccc(Cl)cc2)cc1` [4,4'-dichlorobiphenyl], the “Henry solubility constant Hcp” value was 0.068.
